Data on three compounds can be found in patent EP1060182B1, “NOVEL PRODRUGS FOR PHOSPHORUS-CONTAINING COMPOUNDS” (Metabasis Therapeutics, Inc., priority 1998, dated 1999).

Data set [1] is described as follows: Oral bioavailability by urinary excretion method (Example M). The class given is in vivo. The following applies: rat, urine, parent compound, read-out: % OBAV Parent.
Method: The oral bioavailability of prodrugs of a variety ofphosphonic acid FBPase inhibitors was estimated by a urinary excretion method in rat.
The quantity of parent compound excreted into urine was determined by HPLC analysis. An ODS column eluted with a gradient from potassium phosphate buffer, pH 5.5 to acetonitrile was employed for these measurements. Detection was at 310-325 nm.
Data set [2] is described as follows: Chemical stability in isotonic saline and phosphate buffer (Example A). The class given is physicochemical.
The nature of data set [3]: Stability in plasma (Example C). The class given is in vitro ADME, rat. The following applies: 37°C, 5-8 hours, reverse phase HPLC.
Method: Methods: Compounds were incubated in plasma at 37°C, and aliqouts removed at appropriate time points over the course of 5-8 hours. The aliquots were extracted with 1.5 volumes of methanol and clarified by centrifugation. Supernatants were then evaporated to dryness and the residues reconstituted with 100 µL of isotonic saline and then analyzed by reverse phase HPLC.
Data set [4] has as its system microsomal fraction of human liver. The data set can be described thus: Activation by human liver microsomes (Example E). The class given is in vitro ADME. The method, then:
7.1, 1.3, and 30.1 were tested for conversion to their respective parent compounds by the microsomal fraction of human liver.
For orientation: Liver microsomes are vesicles of endoplasmic reticulum, rich in cytochrome P450 enzymes.

Data set [5] relates to isolated rat hepatocytes. The data set can be described thus: Activation to parent compound in isolated rat hepatocytes (Example I). The class given is cell-based. The following applies: 100 µM prodrug. The source says:
An ODS column was used for analysis. […] Detection was at 310 nm.

The subject of data set [6] is glucose production in isolated rat hepatocytes. Kind of data set: Inhibition of glucose production in rat hepatocytes (Example J). The class given is cell-based. The conditions noted are these: Rattus norvegicus, Hepatocyte; 1 hour, lactate 10 mM / pyruvate 1 mM. The method, then:
Select prodrugs of FBPase inhibitors were tested for inhibition of glucose production in isolated rat hepatocytes.
After a 10 minute equilibration period, lactate and pyruvate were added to 10 mM and 1 mM concentrations, respectively. Addition of gluconeogenic substrates was immediately followed by that of appropriate concentrations of test compound. After 1 hour, an aliquot (0.25 ml) was removed, transferred to an Eppendorf tube and centrifuged. The supernatant (50 µl) was then assayed for glucose content using a Glucose Oxidase kit (Sigma Chemical Co.) as per the manufacturer's instructions.

Data set [7] can be described thus: Delivery of parent compound to liver after intraperitoneal prodrug (Example U). The class given is in vivo, rat. The conditions noted are these: 1.3 at 50 mg/kg i.p.; the last time point measured. The method, then:
Methods: 1.3 was dissolved in DMSO and administered intraperitoneally to fasted rats at a dose of 50 mg/kg. At various time points following drug administration, animals were anesthetized with halothane. The peritoneal cavity was then opened and a blood sample was obtained from the abdominal vena cava and the liver freeze-clamped and excised. Blood and liver samples were processed as described in Example P and analyzed for 6-Amino-9-neopentyl-8-(2-phosphonofuranyl)purine content as described in Example I.

Another data set has as its system human liver microsomes. The data set can be described thus: Identification of the p450 isozyme involved in activation, with specific p450 inhibitors (Example F). The class given is in vitro ADME. The conditions noted are these: 250 µM prodrug, ketoconazole, furafylline, sulfaphenazole as inhibitors. The method, then:
Reactions were stopped by addition of methanol to a concentration of 60%, filtered (0.2 µM filter), and lyophilized. Samples were resuspended in HPLC buffer (10 mM phosphate pH 5.5, 2.5 mM octyl-triethyl-ammonium), loaded onto a YMC C8 HPLC column (250 x 4.6 mm), and eluted with a methanol gradient to 80%.

The subject of a further data set is recombinant CYP3A4. The data set can be described thus: Activation by recombinant CYP3A4 (Example G). The conditions noted are these: 30.1 at 250 µM, 37°C, NADPH dependent, linear for 30 minutes. The class given is in vitro ADME. The method, then:
Activation of 30.1 and 28.4 was evaluated in reactions containing microsomes from baculovirus-infected insect cells co-expressing recombinant CYP3A4 and cytochrome p450 reductase (Panvera Corp., Madison, WI).
Methods: Reaction mixture composition was similar to that described in Example E. Reactions were terminated by addition of methanol to a final concentration of 60%, and products typically analyzed by HPLC with use of a YMC reverse phase C8 column (250 x 4.6 mm). […] The effluent was monitored at 254 nm.

Data set [8] is described as follows: Pharmacokinetics of 30.1 after intravenous dosing (Example N). The conditions noted are these: for half-life: 20 mg/kg. The class given is in vivo, rat. The method, then:
The pharmacokinetics of 30.1 were evaluated in the rat.
Methods: 30.1 was administered at 20 mg/kg to fasted rats via the tail vein under light halothane anesthesia. At apropriate time points following drug administration, rats were re-anesthetized with halothane. The peritoneal cavity was then opened and a blood sample was obtained from the abdominal vena cava and the liver freeze-clamped and excised. Blood samples were briefly centrifuged and the plasma fraction was then extracted with 1.5 volumes of methanol, processed, and analyzed by HPLC as described in Example A. Liver samples were excised, frozed in liquid nitrogen, and then homogenized in 100% methanol. Liver extracts were then centrifuged at 14,000 rpm and the methanolic supernatants subsequently filtered and evaporated to dryness. Samples were resuspended in isotonic saline and analyzed by HPLC as described in Example A. Pharmacokinetic parameters were determined with the aid of WinNonLin version 1:1 (Scientific Consulting, Inc.) software. Renal excretions studies were performed as described in Example Q.

The nature of data set [9]: Liver ara-ATP and plasma/urine ara-hypoxanthine after intravenous dosing (Example O). The class given is in vivo, rat. The protocol:
The temporal profile of ara-hypoxanthine and ara-ATP generation following intravenous administration of 30.1 and free ara-AMP was compared in the rat.
Method: 30.1 and ara-AMP (Sigma) were administered to normal, fasted rats intravenously (in saline) via tail vein catheters. At appropriate time points following drug a administration, animals were lightly anesthetized with halothane. The peritoneal cavity was then opened and a blood sample was obtained from the abdominal vena cava and the liver freeze-clamped and excised.
The blood samples were heparinized and plasma was prepared. Plasma samples (100 µL) were mixed with 4 N perchloric acid (40 µL), vortexed, and then clarified by centrifugation. The supernatants were analyzed for ara-hypoxanthine by HPLC with use of a Beckman Ultrasphere ODS column (4.6 x 150 mm). The column was eluted with 100 mM acetic acid at a flow rate of 1.0 mL/min. The eluent was monitored by UV absorbance at 254 nm.
Livers were immediately homogenized in 3 volumes of 10% perchloric acid (w/w), and the extracts clarified by centrifugation at 2500 x g (5 minutes). The resulting supernatants were removed and neutralized with 0.3 volumes of 3M KOH/ 3M KHCO3. The neutralized liver extracts were then spun in an Eppendorf microfuge at 10,000 rpm (20 minutes, 4°C). The supernatants were analyzed for ara-ATP content by reverse phase HPLC (HP1050) using a Whatman Partisphere SA column (4.6 x 125 mm). A gradient from 0.3M ammonium phosphate buffer pH 3.5 to 0.8M ammonium phosphate pH 3.5 was run (1 ml/minute flow rate).
Renal excretion of araH following i.v. administration of 30.1 or ara-AMP was determined as described in Example Q.

A short description of data set [10]: Preliminary 22-day toxicological evaluation, intraperitoneal (Example R). The class given is in vivo, mouse. The conditions noted are these: i.p. 10 and 100 mg/kg b.i.d. for 22 days, doses up to 200 mg/kg/d.
Description: Death and other obvious signs of toxicity such as weight loss, tremors, ruffling fur, hunching, prostration, diarrhea, lethargy, and hyperactivity were monitored.
The nature of data set [11]: Activation in tissue homogenates, tissue distribution (Example T). The class given is in vitro ADME, rat. The following applies: liver cytosol, which does not contain microsomes. The method, then: 30.1 is tested for activation in homogenates from various tissues to assess the specificity of liver activation.
Methods: Rats are anaesthetized under halothane and tissues including liver, kidney, brain , heart, stomach, spleen, muscle, lung, and testis are excised and frozen in liquid nitrogen. Tissues are then homogenized in 1 to 3 volumes of 50 mM Tris/HCl, 154 mM KCl, 1 mM EGTA pH 7.4. The homogenate is centrifuged at 10,000 rpm and 4°C for 30 minutes and the supernatant recovered. Liver cytosol is prepared by centrifuging the liver crude extract for 1 hour at 40,000 rpm and 4°C. Reaction mixtures consist of 50 mM KH2PO4 pH 7.4, 13 mM glucose-6-phosphate, 2 mM NADP^+, 10 units of glucose-6-phosphate dehydrogenase, 100 µM 30.1 and tissue homogenate at a protein concentration of 8.5 mg/ml. Reactions are incubated at 37°C. Aliquots are taken after 0 and 1 hour of incubation, and extracted with 60 % methanol. The methanolic extracts are centrifuged at 14,000 rpm, and filtered prior to analysis by HPLC. The samples are loaded onto a YMC C8 column equilibrated with 0.1% TFA and eluted with a methanol gradient to 80%. The activation of 30.1 to ara-AMP is monitored at […]

The subject of data set [12] is isolated rat hepatocytes. Kind of data set: Active drug metabolites formed after prodrug activation in isolated rat hepatocytes (Example K). The conditions noted are these: Dose 100 µM, time point 2h.
Method: Methods: Hepatocytes were prepared and incubated as described in Example I. 28.4 and 30.1 and their respective parent compounds, PMEA and ara-AMP, were dissolved in DMSO or methanol to yield 10 mM stock solutions, and then diluted into the cell suspension to yield a final concentration of 100 µM. At appropriate time points over the course of 2-4 hours, aliquots of the cell suspension were removed and spun through a silicon/mineral oil layer into 10% perchloric acid. The cell extracts in the acid layers were neutralized by the addition of 0.3 volumes of 3M KOH/3M KHCO3, and the extract was then centrifuged, filtered (0.2 micron filter) and loaded onto an anion exchange HPLC column equilibrated with 70% A (10 mM ammonium phosphate pH 3.5, 6% ETOH) and 30% B (1 M ammonium phosphate pH 3.5, 6% ETOH). Ara-ATP and PMEApp were eluted with a gradient to 80% B. Detection was at 254 nm.

Structures are written as SMILES. Where “and” joins values, the source holds several entries; their conditions need not be identical. Identical values can stand only once. Entries after “also recorded” stand apart in the source; their conditions may differ. Like-named read-outs stand apart in the source and are kept apart here.

Take `CC(C)Cn1c(-c2ccc(P(=O)(O)O)o2)nc2ccc(Cl)cc21` [6-Chloro-1-isobutyl-2-(2-phosphono-5-furanyl) benzimidazole]: the bioavailability at 24 h in [1] came to 0.5%.
In general, IC50 refers to the concentration at which inhibition is half-maximal. A low value points to greater potency. For the compound `CC(C)(C)Cn1c(-c2ccc(P3(=O)OC4CC(O)CC(C4)O3)o2)nc2c(N)ncnc21` (single isomer, unassigned) [Compound 1.3, 6-Amino-8-(5'-hydroxyl-1',3' cyclohexyl)phosphonofuranyl-9-neopentyl purine], in [2] (100 µM in phosphate buffer pH 7.4, 1 hour at room temperature), the “stability of 1.3” value was “fully stable”. In addition, the “metabolism / degradation in fresh rat plasma” value in data set [3] is given as “no evidence of metabolism”. Moreover, the “rate of formation of parent compound” value in data set [4] (250 µM prodrug, 37°C, NADPH-generating system) is on record as 0.55 nmoles/mg microsomal protein/minute. The “intrahepatocyte levels of parent compound 6-Amino-9-neopenhyl-8-(2-phosphonofuranyl)purine” value in the data set on isolated rat hepatocytes [5] is “similarly high levels”. Also, inhibition in data set [6] was half-maximal at 13 µM (IC50). The “persistence of 6-Amino-9-neopentyl-8-(2-phosphonofuranyl)purine in plasma and liver” value in data set [7] was 4 h.
By half-life is commonly meant the time needed for the level to fall by half in the phase considered. One may read the clearance as the volume of plasma or blood freed of the substance per unit of time. For `Nc1ncnc2c1ncn2[C@@H]1O[C@H](COP2(=O)OCCC(c3ccncc3)O2)[C@@H](O)[C@@H]1O` (stereo partly drawn) [Compound 30.1, Adenine-9-beta-D-arabinofuranoside-5'-[1-(4-pyridyl)-1,3-propyl]monophosphate], the “stability / decomposition of 30.1” value in data set [2] (10 µg/mL in isotonic saline and 100 mM potassium phosphate buffers pH 3, 7 and 9, room temperature, sampled 1, 2, 5, 7 days, HPLC) is “stable for at least seven days; also recorded: No decomposition”. The “metabolism / degradation in fresh rat plasma” value in data set [3] was “not degraded; also recorded: no evidence of metabolism”. In addition, in [4] (250 µM 30.1, 37°C, human liver microsomes), the “reaction rate for the formation of ara-AMP” value is reported as 0.12 nmoles/min/mg of microsomal protein. Further, in the data set on human liver microsomes, the “primary p450 isoform responsible for activation in human liver” value is listed as “CYP3A4”. The “rate of formation of ara-AMP” value in the data set on recombinant CYP3A4 amounted to 3.3 ± 0.5 nmoles/ min/ nmole CYP3A4. Also, the “concentration of prodrug observed in liver” value in data set [8] (20 mg/kg i.v., at 20 minutes) is ~ 20 nmoles/g. For the same compound, the half-life is 54 min in [8] (rat, liver, iv, 20 mg/kg i.v., read-out: liver half life (converted)); 11.4 min in data set [8] (rat, plasma, iv, 20 mg/kg i.v., read-out: plasma half life (converted)); 12 min in data set [8] (rat, plasma, iv, 30.1 in rat, restated in Example S, read-out: plasma half-life). Further, the clearance in [8] (rat, plasma, iv, 20 mg/kg i.v.) was 55.7 mL/min/kg. Besides, in [8] (rat, plasma, iv, 20 mg/kg i.v., read-out: mean residence time), the MRT is 12.6 min. In addition, the Vd in [8] (rat, plasma, iv, 20 mg/kg i.v., read-out: volume of distribution) is 0.7 L/kg. The dose excreted at 24 h in data set [8] (rat, urine, iv, 24 hr urine, read-out: urinary (renal) excretion (24hr)) is ~58%. The “amount of araATP per gram of liver over time (Figure 1A)” value in data set [9] (30.1 i.v. 10 and 3 mg/kg vs araAMP 10 mg/kg) is “Significantly higher liver levels”. The ara-hypoxanthine in urine entry in [9] (i.v. 30.1) is given as “Nor was ara-hypoxanthine detected in urine”. Moreover, in data set [9] (i.v., 30.1 at 10 and 3 mg/kg, ara-AMP at equivalent doses), the “ara-hypoxanthine (araH) in plasma” value is “virtually no araH; also recorded: not detected”. In [9] (i.v., summary statements of Example O), the “liver levels of araATP relative to araA or araAMP” value was 2-5 fold and 2- to 5 fold. The “mortality and obvious signs of toxicity” value in data set [10] is “safely administered”. Further, in [11], the “activation of 30.1 to ara-AMP” value is “does not result in activation”. The “Product concentration nmoles/g cells (ara-ATP)” value in the data set on isolated rat hepatocytes [12] is on record as 108±4 nmoles/g cells.
